{"source": "paper PMC9738107", "about": "“Targeting of the ELR+CXCL/CXCR1/2 Pathway Is a Relevant Strategy for the Treatment of Paediatric Medulloblastomas” (Cells, 2022)", "format_in_all_cases": "cell-based, human", "key": {"[1]": {"test_system": "HD-MB03 spheroids expressing DsRed on mouse cerebellar slices", "assay": "Ex vivo cerebellar organotypic model", "conditions": "5 µM C29 daily for five days, after fourteen days", "from_the_text": "(§1) To establish ex vivo cultures of cerebellar tissues, mouse cerebellums were surgically harvested and sectioned into 250 μm thick slices using a vibrating blade microtome (RRID:SCR_016495). To comply with the 3-R rule, we used supernumerary mice (aged 12 weeks) that were destined to be sacrificed. A spheroid formed from DsRed-expressing MB cells was then grafted onto each cerebellum slice. These organotypic co-culture models were placed on inserts and maintained as previously described. After daily exposure to C29 or DMSO for 5 consecutive days, tumour growth and invasion within the cerebellum slices were analysed over time using the JuLI™ Stage imaging system and the PHERAstar® FS multiplate reader (λex 580 nm/λem 620 nm–fluorescence signal acquisition with a 15 × 15 matrix scanning mode). […]\n(§2) Figure 7 C29 is effective in ex vivo cerebellar organotypic model. […] (B) Spheroid growth was monitored by measuring DsRed fluorescence (PheraStar) over 14 days (C) Statistics were performed using Student t-test. * p < 0.05, n = 5. […] Daily (14 days) images, 30 in total, of spheroid growth in each well (JULISdays) were taken (D) Spheroid growth was monitored by measuring DsRed fluorescence (PheraStar) for 14 days (E) Scale bar = 250 µM. […]"}, "[2]": {"test_system": "ONS-76 spheroids expressing DsRed on mouse cerebellar slices", "assay": "Ex vivo cerebellar organotypic model", "conditions": "5 µM C29 daily for five days, after fourteen days", "from_the_text": "as §1, §2"}, "[3]": {"test_system": "DR1/DR2 and HR1/HR2 radio-resistant cells", "assay": "Cell proliferation assay (cell counting), radiation-resistant cells", "conditions": "1 µM", "procedure": "Figure 8 C29 is efficient on radioresistant MB cell lines. (A) Cell death after 48 h of treatment with control (DMSO, CT) or C29 1, 2.5, or 5 µM on radiation-resistant cells (RR) and normal cells (N), n = 3. Statistics were performed using the one-way method ANOVA. * p < 0.05, ** p < 0.01, *** p < 0.001. For this figure, DR1 = D1, DR2 = D2, HR1 = H1, HR2 = H2, and C8D1A = C8. (B) Proliferation of DR1/DR2 (A) and HR1/HR2 (B) radio-resistant cells after 1 µM C29 treatment or control (DMSO), n = 3. (C) Clonogenic assay on DR1, DR2 (n = 3) and HR1, HR2 (n = 3) cells after treatment with control (DMSO) or C29 (1 µM or 2.5 µM). […] Results are expressed as percentage of control (n = 3). […]\n1500 Daoy, ONS ‐76, HD ‐MB03 or D341 Med cells were sown in triplicate in plates with six wells and the cells were counted daily for 8 days using a Coulter counter (Ville‐ pinte). The relative number of cells (compared to day 1) was determined daily. […]\nY = Y0 * exp(k * X) (Y= Cell number at day X; Y0= Cell number at day 0 (graphically calculated); X= Day following cell plating (cells plated at X0=0); k= Exponential growth constant rate. Doubling times were compared.\n150 Daoy/DR1/DR2/ ONS ‐ 76 and 300 HD ‐ MB03/HR1/HR2 cells were seeded in trip‐ licate in 6‐well plates in the presence or absence of treatment (1 or 2∙5μM MCK140 or DMSO as control). […] The number of clones was quantified using ImageJ software. […]"}}}
{"smiles": "O=C(Nc1cccc(Cl)c1)Nc1nc2ccc([N+](=O)[O-])cc2s1", "note": "[C29, 1-(3-chlorophenyl)-3-(6-nitrobenzo[d]thiazol-2-yl) urea]", "values": [{"measurement": "Reduction of tumour expansion", "setting": "[1]", "result": "34.4 ± 8.8", "unit": "%"}, {"measurement": "Reduction of tumour expansion", "setting": "[2]", "result": "28.9 ± 4.5", "unit": "%"}, {"measurement": "Proliferation", "setting": "[3]", "result": "reduce proliferation"}]}
